Experimental data from EP0326329B1, “Quinazoline derivatives useful as insecticides” (Dow AgroSciences LLC, priority 1988, dated 1989).

How the values were obtained:
Format in all cases: in vivo
[1] = system: Puccinia recondita tritici (leaf rust); assay: Greenhouse Test 1, foliar spray fungicide screen (LEAF RUST), host wheat; conditions: disease control rating, 400 ppm (+++ at 100 ppm)
[2] = system: Erysiphe graminis tritici (powdery mildew); assay: Greenhouse Test 1, foliar spray fungicide screen (POWD MDEW), host wheat; conditions: disease control rating, 400 ppm (+++ at 100 ppm)
[3] = system: Twospotted spider mites (Tetranychus urticae Koch); assay: Mite/insect screen, sprayed squash cotyledons (SM); conditions: percent mortality; for mortality at 200 ppm / mortality at 400 ppm: Tetranychus urticae, read-out: SM RESULTS %; for mortality at 400 ppm: spray rate 400 ppm
In short: (§1)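 Compounds dissolved in acetone/alcohol with TOXIMUL R/S emulsifiers, diluted with water to test concentrations, and sprayed to runoff on both leaf surfaces at 10 psi, then dried 1 h. Excised treated squash leaves given southern armyworm larvae; aphid and spider mite tests on sprayed squash cotyledons. Percent mortality and phytotoxicity scored after standard exposure.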

[4] = system: Southern corn rootworm (Diabrotica undecimpuctata howardi Barber); assay: Mite/insect screen, soil treatment (CRW); conditions: percent mortality, soil treatment; for mortality at 12 ppm / mortality at 24 ppm: Diabrotica, read-out: CRW RESULTS %; for mortality at 24 ppm: CRW rate 24.00 ppm
In short: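 Five 2–3 instar larvae were placed on dry sandy soil with a presoaked corn seed after the soil had received 1 mL of compound solution and dried 6–12 h; cups were kept capped at 23°C. Mortality (%) and phytotoxicity were read after standard exposure. Formulation: acetone/alcohol with emulsifiers, water-diluted.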

[5] = system: southern armyworm (Spodopetra eridania Cramer); assay: Mite/insect screen, sprayed squash leaves (SAW); conditions: percent mortality; for mortality at 200 ppm / mortality at 400 ppm: Spodoptera eridania, read-out: SAW RESULTS %; for mortality at 400 ppm: spray rate 400 ppm
In short: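 Acetone/alcohol (50:50) + emulsifier blends 23 g/L and 13 g/L; water dilution to test concs. Spray both leaf surfaces to runoff, dry 1 h. For armyworm, 2 excised uninfested leaves into Petri dish with larvae. Readout: % mortality, phytotoxicity.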

[6] = system: Botrytis cinerea (gray mold); assay: Greenhouse Test 1, foliar spray fungicide screen (GRAY MOLD), host grape berries; conditions: disease control rating, 400 ppm (+++ at 100 ppm)
[7] = system: melon aphids (Aphis gossypii Glover); assay: Mite/insect screen, sprayed squash cotyledons (MA); conditions: percent mortality; for mortality at 200 ppm / mortality at 400 ppm: Aphis gossypii, read-out: MA RESULTS %; for mortality at 400 ppm: spray rate 400 ppm
In short: as §1

[8] = system: Pyricularia oryzae (rice blast); conditions: disease control rating, foliar spray, host rice; 400 ppm (+++ at 100 ppm)
[9] = system: Pseudoperonospora cubensis (downy mildew); assay: Greenhouse Test 1, foliar spray fungicide screen (DOWN MDEW), host squash; conditions: disease control rating, 400 ppm (+++ at 100 ppm)

SMILES	LEAF RUST [1]	POWD MDEW [2]	mortality at 200 ppm ([3]; spray rate 200 ppm) [%]	mortality at 400 ppm [3] [%]	SM RESULTS % ([3]; spray rate 200 ppm) [%]	mortality at 12 ppm ([4]; CRW rate 12.00 ppm) [%]	mortality at 24 ppm [4] [%]	CRW RESULTS % ([4]; CRW rate 12.00 ppm) [%]	mortality at 200 ppm ([5]; spray rate 200 ppm) [%]	mortality at 400 ppm [5] [%]	SAW RESULTS % ([5]; spray rate 200 ppm) [%]	GRAY MOLD [6]	mortality at 200 ppm ([7]; spray rate 200 ppm) [%]	mortality at 400 ppm [7] [%]	MA RESULTS % ([7]; spray rate 200 ppm) [%]	RICE BLAST [8]	DOWN MDEW [9]
Fc1cccc2c(NCC(c3ccccc3)c3ccccc3)ncnc12 [Example 61, N-(2,2-diphenylethyl)-8-fluoro-4-quinazolinamine]	- (- = 0-19% control at 400 ppm)	- (- = 0-19% control at 400 ppm)	0	0	0	0	0	0	0	0	0	- (- = 0-19% control at 400 ppm)	0	0	0	- (- = 0-19% control at 400 ppm)	- (- = 0-19% control at 400 ppm)
FC(F)(F)c1cccc(CCCOc2ncnc3ccccc23)c1 [Example 196, 4-[3-(3-trifluoromethylphenyl)propoxy]quinazoline]	- (- = 0-19% control at 400 ppm)	++ (++ = 90-100% control at 400 ppm)	0	0		0	0		0	0		- (- = 0-19% control at 400 ppm)	0	0		- (- = 0-19% control at 400 ppm)	- (- = 0-19% control at 400 ppm)
CC(C)(C)c1ccc(CCCOc2ncnc3ccccc23)cc1 [Example 138, 4-[3-[4-(1,1-dimethylethyl)phenyl]propoxy]quinazoline]	- (- = 0-19% control at 400 ppm)	++ (++ = 90-100% control at 400 ppm)	0	80		0	0		0	0		- (- = 0-19% control at 400 ppm)	30	60		+ (+ = 20-89% control at 400 ppm)	++ (++ = 90-100% control at 400 ppm)
CC(COc1ncnc2ccccc12)c1ccc(Oc2ccccc2)cc1 (stereo not drawn) [Example 161, 4-[2-(4-phenoxyphenyl)propoxy]quinazoline]	++ (++ = 90-100% control at 400 ppm)	+ (+ = 20-89% control at 400 ppm)	70	0		0	100		20	100		- (- = 0-19% control at 400 ppm)	30	0		+ (+ = 20-89% control at 400 ppm)	- (- = 0-19% control at 400 ppm)
Oc1cccc(CCOc2ncnc3ccccc23)c1 [Example 111, 4-[2-(3-hydroxyphenyl)ethoxy]quinazoline]	+ (+ = 20-89% control at 400 ppm)	- (- = 0-19% control at 400 ppm)	0	0		0	0		0	0		- (- = 0-19% control at 400 ppm)	0	0		++ (++ = 90-100% control at 400 ppm)	+ (+ = 20-89% control at 400 ppm)
COc1cc(CCOc2ncnc3ccccc23)ccc1O [Example 147]	+++ (+++ = 90-100% control at 100 ppm)	+++ (+++ = 90-100% control at 100 ppm)	0	0		0	0		0	0		- (- = 0-19% control at 400 ppm)	50	0		- (- = 0-19% control at 400 ppm)	+++ (+++ = 90-100% control at 100 ppm)
Fc1ccccc1CCOc1ncnc2ccccc12 [Example 48, 4-[2-(2-fluorophenyl)ethoxy]quinazoline]	+++ (+++ = 90-100% control at 100 ppm)	+++ (+++ = 90-100% control at 100 ppm)		90			0			0		- (- = 0-19% control at 400 ppm)		100		+ (+ = 20-89% control at 400 ppm)	++ (++ = 90-100% control at 400 ppm)
Fc1ccc(CCOc2ncnc3c(F)cccc23)c(F)c1 [Example 159, 8-fluoro-4-[2-(2,4-difluorophenyl)ethoxy]quinazoline]	+++ (+++ = 90-100% control at 100 ppm)	+++ (+++ = 90-100% control at 100 ppm)	90	80		0	0		0	0		- (- = 0-19% control at 400 ppm)	80	100		+++ (+++ = 90-100% control at 100 ppm)	+++ (+++ = 90-100% control at 100 ppm)
CCOc1ccc(CCOc2ncnc3ccccc23)cc1OC [Example 21, 4-[2-(4-ethoxy-3-methoxyphenyl)ethoxy]quinazoline]	+++ (+++ = 90-100% control at 100 ppm)	+++ (+++ = 90-100% control at 100 ppm)		60			100			0		- (- = 0-19% control at 400 ppm)		80		+++ (+++ = 90-100% control at 100 ppm)	+++ (+++ = 90-100% control at 100 ppm)
CC(C)c1ccc(CCOc2ncnc3ccccc23)cc1 [Example 88, 4-[2-[4-(i-propyl)phenyl]ethoxy]quinazoline]	+++ (+++ = 90-100% control at 100 ppm)	+++ (+++ = 90-100% control at 100 ppm)	100	0		0	0		0	100		- (- = 0-19% control at 400 ppm)	100	0		+++ (+++ = 90-100% control at 100 ppm)	+++ (+++ = 90-100% control at 100 ppm)
